Data: patent US20220227773A1, “FUSED RING COMPOUND, PREPARATION METHOD THEREFOR AND USE THEREOF” (SHANGHAI INSTITUTE OF MATERIA MEDICA, CHINESE ACADEMY OF …, priority 2019, published 2022)
Structures can show the parent of a compound that is named as a salt. Where two headings read alike, the source gives them in different places.

How the values were obtained:
[1] = biological target: T1, hSERT (5-HTT) in HEK293-hSERT cells (Homo sapiens, UniProt P31645); assay: 5-HTT reuptake activity assay (fluorescence neurotransmitter transporter uptake kit); format: cell-based; conditions: serotonin reuptake inhibition
T1 construct: expressed in transfected cells; host or cells: HEK293

[2] = biological target: T2, human recombinant 5-HT3 receptor (Homo sapiens, UniProt P46098); assay: 5-HT3 receptor affinity assay (3H-BRL 43694 radioligand binding); conditions: read-out: inhibition (%) at 1 μM
T2 construct: expressed in transfected cells; host or cells: HEK293 (membrane preparation)
T2 sequence (P46098 24-478): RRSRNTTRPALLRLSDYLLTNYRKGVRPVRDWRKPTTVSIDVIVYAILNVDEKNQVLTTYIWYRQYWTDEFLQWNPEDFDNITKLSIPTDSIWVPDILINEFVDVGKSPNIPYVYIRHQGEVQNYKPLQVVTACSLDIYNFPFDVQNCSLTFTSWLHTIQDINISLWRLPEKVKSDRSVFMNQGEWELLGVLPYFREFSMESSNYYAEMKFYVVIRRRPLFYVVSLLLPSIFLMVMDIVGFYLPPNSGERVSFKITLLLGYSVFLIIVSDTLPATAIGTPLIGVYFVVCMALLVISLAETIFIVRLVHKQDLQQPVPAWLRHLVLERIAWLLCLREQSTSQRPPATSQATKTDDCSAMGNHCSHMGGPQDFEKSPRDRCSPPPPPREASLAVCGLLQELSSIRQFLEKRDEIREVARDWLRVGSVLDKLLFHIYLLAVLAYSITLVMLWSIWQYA

mice = assay: Forced swimming test (FST) in mice; format: in vivo; conditions: Mus musculus
Experimental: 3. In Vivo Drug Efficacy Test (Mouse Forced Swimming Model)
Experimental animals: C57BL/6 mice (Shanghai Xipuer-Bikai Experimental Animal Co., Ltd.), male, 6 weeks old, weighing 15-20 g. ICR mice (Shanghai Xipuer-Bikai Experimental Animal Co., Ltd.), male, 6 weeks old, weighing 20-25 g. All the ordered mice were fed in a standard environment for 2-3 weeks before test.
Forced Swimming Test (FST): in the forced swimming apparatus, the water level is 45 cm, and the water temperature is 25° C. Before the experiment, the mice were placed in the experimental room for 1 h for adapting to the environment. At the beginning of the experiment, the mice were placed in the apparatus for 6min, and the whole process was recorded with a camera. When analyzing the data, only the immobility time of the mice in the last 4 min was counted, and the result was expressed by mean±SD.
The results were analyzed by one-way analysis of variance. […] FST: Forced swimming test; TST: Tail suspension test.

[3] = ip, read-out: Effective dose (mg/kg)
[4] = 1 μM compound, 0.5 nM 3H-BRL 43694, HEK293 membranes
[5] = po, FST, dose significantly reducing immobility time of mice, read-out: Effective dose

T1 sequence (P31645 whole entry): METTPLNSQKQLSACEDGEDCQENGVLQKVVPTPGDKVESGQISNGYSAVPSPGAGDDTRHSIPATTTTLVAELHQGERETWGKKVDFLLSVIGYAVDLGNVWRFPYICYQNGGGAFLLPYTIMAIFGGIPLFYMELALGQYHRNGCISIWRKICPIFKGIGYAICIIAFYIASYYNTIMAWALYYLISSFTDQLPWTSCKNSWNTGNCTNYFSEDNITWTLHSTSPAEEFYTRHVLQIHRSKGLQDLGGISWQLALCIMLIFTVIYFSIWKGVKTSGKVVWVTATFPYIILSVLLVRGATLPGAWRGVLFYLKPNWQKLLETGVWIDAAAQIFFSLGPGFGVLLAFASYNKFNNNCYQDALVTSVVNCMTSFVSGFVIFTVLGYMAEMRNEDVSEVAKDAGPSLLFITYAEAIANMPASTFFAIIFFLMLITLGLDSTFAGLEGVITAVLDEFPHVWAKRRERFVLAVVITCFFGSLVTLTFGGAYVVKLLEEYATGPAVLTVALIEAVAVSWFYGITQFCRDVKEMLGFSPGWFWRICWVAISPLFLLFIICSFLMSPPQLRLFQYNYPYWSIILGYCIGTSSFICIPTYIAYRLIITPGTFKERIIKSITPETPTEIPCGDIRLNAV

| SMILES | IC50 [1] [nM] | other results |
| --- | --- | --- |
| c1cc2cc(N3CCC4CNCC43)ccc2s1 (stereo not shown) [Example 64, 1-(Benzothiophen-5-yl)octahydropyrrolo[3,4-b]pyrrole maleate] | < 50 |  |
| Cc1cccc(N2CC3CNCC3C2)c1C (stereo not shown) [Example 66, 2-(2,3-dimethylphenyl)octahydropyrrolo[3,4-c]pyrrole maleate] | < 50 |  |
| c1ccc2c(C3CC4CNCC4C3)cccc2c1 (stereo not shown) [Example 8, 5-(naphthalen-1-yl)octahydrocyclopenta[c]pyrrole hydrochloride] | < 200 |  |
| CN1CC2CN(c3cccc4c3CCC(=O)N4)CC2C1 (stereo not shown) [Example 93, 5-(5-methylhexahydropyrrolo[3,4-c]pyrrol-2(1H)-yl)-3,4-dihydroquinolin-2(1H)-one dihydrochloride] | < 200 |  |
| C1=C(c2cc3ccccc3s2)CC2CNCC12 (stereo not shown) [Example 51, 5-(Benzothiophen-2-yl)-1,2,3,3a,4,6a-hexahydrocyclopenta[c]pyrrole hydrochloride] | < 50 |  |
| Clc1cccc(N2CC3CNCC3C2)c1Cl (stereo not shown) [Example 27, 2-(2,3-dichlorophenyl)octahydropyrrolo[3,4-c]pyrrole maleate] | < 50 | inhibition at 1 µM [2]: 104% |
| CN1CC2C=C(c3ccc4ccccc4c3)CC2C1 (stereo not shown) [Example 57, 2-methyl-5-(naphthalen-2-yl)-1,2,3,3a,4,6a-hexahydrocyclopenta[c]pyrrole] | < 50 |  |
| Cl.c1ccc2sc(C3CC4CNCC4C3)cc2c1 (stereo not shown) [Example 50, 5-(benzothiophen-2-yl)octahydrocyclopenta[c]pyrrole hydrochloride] | < 200 | minimal effective dose (mice; [3]): 10 mg/kg; inhibition at 1 µM [2, 4]: 83% |
| Fc1cc(N2CC3CNCC3C2)cc2sccc12 (stereo not shown) [Example 68, 2-(4-fluorobenzo[b]thiophen-6-yl)octahydropyrrolo[3,4-c]pyrrole dihydrochloride] | < 200 |  |
| CN1CC2CN(c3c(F)cc4ccccc4c3F)CC2C1 (stereo not shown) [Example 75, 2-(1,3-difluoronaphthalen-2-yl)-5-methyloctahydropyrrolo[3,4-c]pyrrole dihydrochloride] | < 100 |  |
| CN1CC2CN(c3cccc4ccsc34)CC2C1.O=C(O)C(=O)O (stereo not shown) [Example 11, 2-(Benzo[b]thiophen-7-yl)-5-methyloctahydropyrrolo[3,4-c]pyrrole oxalate] | < 50 | minimal effective dose (mice; [3]): 10 mg/kg; inhibition at 1 µM [2, 4]: 86% |
| CN1CC2CN(c3cc(F)cc4sccc34)CC2C1 (stereo not shown) [Example 70, 2-(6-fluorobenzothiophen-4-yl)-5-methyloctahydropyrrolo[3,4-c]pyrrole oxalate] | < 50 |  |
| Clc1ccc(C2=CC3CNCC3C2)cc1Cl (stereo not shown) [Example 9, 5-(3,4-chlorophenyl)-1,2,3,3a,4,6a-hexahydrocyclopenta[c]pyrrole hydrochloride] | < 200 |  |
| O=C(O)/C=C\C(=O)O.c1cc(N2CC3CNCC3C2)c2ccsc2c1 (stereo not shown) [Example 12, 2-(Benzo[b]thiophen-4-yl)octahydropyrrolo[3,4-c]pyrrole maleate] | < 50 | minimal effective dose (mice; [3]): 3 mg/kg; inhibition at 1 µM [2]: 101% |
| Fc1cc(N2CC3CNCC3C2)c2ccsc2c1 (stereo not shown) [Example 69, 2-(6-fluorobenzothiophen-4-yl)octahydropyrrolo[3,4-c]pyrrole dihydrochloride] | < 200 | minimal effective dose (mice; [3]): 10 mg/kg |
| CN1CC2C=C(c3cc4ccccc4s3)CC2C1 (stereo not shown) [Example 61, 5-(Benzothiophen-2-yl)-2-methyl-1,2,3,3a,4,6a-hexahydrocyclopenta[c]pyrrole hydrochloride] | < 50 |  |
| CN1[C@@H]2CC[C@H]1C[C@@H](OC(=O)c1cc(Cl)cc(Cl)c1)C2 [MDL72222, reference compound] |  | inhibition at 1 µM [2]: 93% |
| CN1CC2CN(c3ccc(C(F)(F)F)cc3)CC2C1.O=C(O)C(=O)O (stereo not shown) [Example 81, 2-methyl-5-(4-(trifluoromethyl)phenyl)octahydropyrrolo[3,4-c]pyrrole oxalate] | < 50 | minimal effective dose (mice; [3]): 10 mg/kg |
| O=C(O)/C=C\C(=O)O.c1cc2cc(N3CC4CNCC4C3)ccc2o1 (stereo not shown) [Example 21, 2-(Benzofuran-5-yl)octahydropyrrolo[3,4-c]pyrrole maleate] | < 50 | minimal effective dose (mice; [3]): 3 mg/kg |
| C1=C(c2cccc3ccccc23)CC2CNCC12 (stereo not shown) [Example 56, 5-(naphthalen-1-yl)-1,2,3,3a,4,6a-hexahydrocyclopenta[c]pyrrole dihydrochloride] | < 50 |  |

| SMILES | IC50 [1] [nM] | other results |
| --- | --- | --- |
| c1cc(N2CC3CCNCCC3C2)c2sccc2c1 (stereo not shown) [Example 43, 2-(Benzo[b]thiophen-7-yl)decahydropyrrolo[3,4-d]azepine maleate] | < 50 |  |
| CN(C)CCCC1(c2ccc(F)cc2)OCc2cc(C#N)ccc21 (stereo not shown) [Citalopram, reference compound] |  | minimal effective dose (mice; [5]): 20 mg/kg |
| CN1CC2CN(c3cc4ccccc4cc3F)CC2C1 (stereo not shown) [Example 76, 2-(3-fluoronaphthalen-2-yl)-5-methyloctahydropyrrolo [3,4-c]pyrrole dihydrochloride] | < 50 |  |
| CN1CC2CN(c3ccc4cc(F)ccc4c3)CC2C1.O=C(O)/C=C\C(=O)O (stereo not shown) [Example 30, 2-(6-fluoronaphthalen-2-yl)-5-methyloctahydropyrrolo[3,4-c]pyrrole maleate] | < 10 | minimal effective dose (mice; [5]): 20 mg/kg |
| c1ccc2c(N3CC4CNCC4C3)csc2c1 (stereo not shown) [Example 23, 2-(Benzo[b]thiophen-3-yl)octahydropyrrolo[3,4-c]pyrrole maleate] | < 200 |  |
| Clc1ccc(N2CCC3CNCC3CC2)c(Cl)c1 (stereo not shown) [Example 90, 6-(2,4-dichlorophenyl)decahydropyrrolo[3,4-d]azepine hydrochloride] | < 50 |  |
| C1=C(c2ccc3ccccc3c2)CC2CNCC12 (stereo not shown) [Example 54, 5-(naphthalen-2-yl)-1,2,3,3a,4,6a-hexahydrocyclopenta[c]pyrrole hydrochloride] | < 50 |  |
| CN1CC2CC(c3cc4ccccc4s3)CC2C1 (stereo not shown) [Example 62, 5-(benzothiophen-2-yl)-2-methyl-octahydrocyclopenta[c]pyrrole hydrochloride] | < 50 |  |
| CN1CC2CCN(c3ccc4sccc4c3)C2C1 (stereo not shown) [Example 65, 1-(Benzothiophen-5-yl)-5-methyloctahydropyrrolo[3,4-b]pyrrole oxalate] | < 50 |  |
| Clc1ccc(N2CC3CCNCCC3C2)cc1Cl (stereo not shown) [Example 42, 2-(3,4-dichlorophenyl)decahydropyrrolo[3,4-d]azepine maleate] | < 10 | inhibition at 1 µM [2]: 103% |
| Cc1cccc(N2CC3CN(C)CC3C2)c1C (stereo not shown) [Example 67, 2-(2,3-dimethylphenyl)-5-methyloctahydropyrrolo[3,4-c]pyrrole oxalate] | < 200 |  |
| CN1CC2CN(c3cccc4ccccc34)CC2C1 (stereo not shown) [Example 26, 2-methyl-5-(naphthalen-1-yl)octahydropyrrolo[3,4-c]pyrrole oxalate] | < 200 | inhibition at 1 µM [2, 4]: 76% |
| CN1CC2C=C(c3cc4ccccc4o3)CC2C1 (stereo not shown) [Example 59, 5-(Benzofuran-2-yl)-2-methyl-1,2,3,3a,4,6a-hexahydrocyclopenta[c]pyrrole hydrochloride] | < 50 |  |
| C1=C(c2cccc3ccsc23)CC2CNCC12 (stereo not shown) [Example 48, 5-(Benzothiophen-7-yl)-1,2,3,3a,4,6a-hexahydrocyclopenta[c]pyrrole hydrochloride] | < 50 |  |
| c1ccc2cc(N3CC4CCNCCC4C3)ccc2c1 (stereo not shown) [Example 6, 2-(naphthalen-2-yl)decahydropyrrolo[3,4-d]azepine maleate] | < 200 |  |
| O=C(O)/C=C\C(=O)O.c1cc2ccc(N3CC4CNCC4C3)cc2s1 (stereo not shown) [Example 19, 2-(Benzo[b]thiophen-6-yl)octahydropyrrolo[3,4-c]pyrrole maleate] | < 10 | minimal effective dose (mice; [3]): 10 mg/kg |
| C1=C(c2cc3ccccc3o2)CC2CNCC12 (stereo not shown) [Example 52, 5-(Benzofuran-2-yl)-1,2,3,3a,4,6a-hexahydrocyclopenta[c]pyrrole hydrochloride] | < 200 |  |
| CN1CC2C=C(c3cccc4ccccc34)CC2C1 (stereo not shown) [Example 71, 2-methyl-5-(naphthalen-1-yl)-1,2,3,3a,4,6a-hexahydrocyclopenta[c]pyrrole] | < 50 |  |
| Fc1ccc2cc(N3CC4CNCC4C3)ccc2c1.O=C(O)/C=C\C(=O)O (stereo not shown) [Example 29, 2-(6-fluoronaphthalen-2-yl)octahydropyrrolo[3,4-c]pyrrole maleate] | < 10 | minimal effective dose (mice; [5]): 5 mg/kg |
| CNCC[C@H](Oc1cccc2ccccc12)c1cccs1 [Duloxetine, reference compound] |  | minimal effective dose (mice; po, read-out: Effective dose (mg/kg)): 20 mg/kg |
